From ChEMBL document CHEMBL1201862, “PubChem BioAssay data set” (2004)
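Step 1: Grow cells in 96-well plates. Step 2: Expose to compound for 48 hours at 5 concentrations. Step 3: Interpolate endpoints linearly; if unreached, use highest concentration. GI50 is the concentration that inhibits growth by half.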 Calls of active or inactive are those of the source. No stated cut-off is given here; in the data, active = GI50 up to about 1.1 µM and inactive = higher.

What was measured:
Experiment in all cases: NCI-60 cell line screen, 48 h
[1] = tested on: 786-0
[2] = tested on: A498
[3] = tested on: A549
[4] = tested on: ACHN
[5] = tested on: BT-549
[6] = tested on: CAKI-1
[7] = tested on: COLO 205
[8] = tested on: DU-145
[9] = tested on: EKVX
[10] = tested on: HCC 2998
[11] = tested on: HCT-116
[12] = tested on: HCT-15
[13] = tested on: HL-60
[14] = tested on: HOP-62
[15] = tested on: HOP-92
[16] = tested on: HT-29
[17] = tested on: Hs-578T
[18] = tested on: IGROV-1
[19] = tested on: K562
[20] = tested on: KM12
[21] = tested on: LOX IMVI
[22] = tested on: M14
[23] = tested on: MCF7
[24] = tested on: MDA-MB-231
[25] = tested on: MDA-MB-435
[26] = tested on: MDA-N
[27] = tested on: MOLT-4
[28] = tested on: Malme-3M
[29] = tested on: NCI-H226
[30] = tested on: NCI-H23
[31] = tested on: NCI-H460
[32] = tested on: NCI-H522
[33] = tested on: NCI/ADR-RES
[34] = tested on: OVCAR-3
[35] = tested on: OVCAR-4
[36] = tested on: OVCAR-5
[37] = tested on: OVCAR-8
[38] = tested on: PC-3
[39] = tested on: RPMI-8226
[40] = tested on: RXF 393
[41] = tested on: SF-268
[42] = tested on: SF-295
[43] = tested on: SF-539
[44] = tested on: SK-MEL-28
[45] = tested on: SK-MEL-2
[46] = tested on: SK-MEL-5
[47] = tested on: SN12C
[48] = tested on: SNB-19
[49] = tested on: SR
[50] = tested on: SW-620
[51] = tested on: TK-10
[52] = tested on: U-251
[53] = tested on: UACC-257
[54] = tested on: UACC-62
[55] = tested on: UO-31
[56] = tested on: CCRF-CEM
[57] = tested on: SK-OV-3
[58] = tested on: T47D

COc1ccccc1-c1c(C#N)c(N)[nH]c(=S)c1C#N
GI50 [1]: 50.7 µM (inactive)
GI50 [2]: 86.1 µM (inactive)
GI50 [3]: 83 µM (inactive)
GI50 [4]: > 100 µM (inactive)
GI50 [5]: 47.9 µM (inactive)
GI50 [6]: > 100 µM (inactive)
GI50 [7]: 53.6 µM (inactive)
GI50 [8]: > 100 µM (inactive)
GI50 [9]: 43 µM (inactive)
GI50 [10]: 74.3 µM (inactive)
GI50 [11]: 41.2 µM (inactive)
GI50 [12]: > 100 µM
GI50 [13]: 34.7 µM (inactive)
GI50 [14]: > 100 µM (inactive)
GI50 [15]: 62.5 µM (inactive)
GI50 [16]: 65.6 µM (inactive)
GI50 [17]: 30.9 µM (inactive)
GI50 [18]: 92.3 µM (inactive)
GI50 [19]: 14.4 µM (inactive)
GI50 [20]: 62.8 µM (inactive)
GI50 [21]: 65.2 µM (inactive)
GI50 [22]: 78.2 µM (inactive)
GI50 [23]: 44.5 µM (inactive)
GI50 [24]: 47.6 µM (inactive)
GI50 [25]: 35.6 µM (inactive)
GI50 [26]: 25.9 µM (inactive)
GI50 [27]: 11.5 µM (inactive)
GI50 [28]: 80.4 µM (inactive)
GI50 [29]: 31.6 µM (inactive)
GI50 [30]: > 100 µM (inactive)
GI50 [31]: 67 µM (inactive)
GI50 [32]: 23.2 µM (inactive)
GI50 [33]: > 100 µM (inactive)
GI50 [34]: 56.1 µM (inactive)
GI50 [35]: 57.8 µM (inactive)
GI50 [36]: > 100 µM (inactive)
GI50 [37]: 61.4 µM (inactive)
GI50 [38]: 32.1 µM (inactive)
GI50 [39]: 20.5 µM (inactive)
GI50 [40]: 34.4 µM (inactive)
GI50 [41]: 47.6 µM (inactive)
GI50 [42]: 52.8 µM (inactive)
GI50 [43]: > 100 µM (inactive)
GI50 [44]: 71.6 µM (inactive)
GI50 [45]: 37 µM (inactive)
GI50 [46]: 32.1 µM (inactive)
GI50 [47]: 25.4 µM (inactive)
GI50 [48]: > 100 µM (inactive)
GI50 [49]: 46.5 µM (inactive)
GI50 [50]: 27.4 µM (inactive)
GI50 [51]: > 100 µM (inactive)
GI50 [52]: 48.1 µM (inactive)
GI50 [53]: > 100 µM (inactive)
GI50 [54]: 55.1 µM (inactive)
GI50 [55]: 93.1 µM (inactive)

O=c1c2cc(S(=O)(=O)O)ccc2nc(COc2ccc(Oc3ccc(Cl)cc3Cl)cc2)n1-c1ccc(Cl)cc1Oc1c(Cl)cccc1Cl
GI50 [1]: 24.7 µM (inactive)
GI50 [2]: 25.3 µM (inactive)
GI50 [3]: 23.7 µM (inactive)
GI50 [4]: 25.1 µM (inactive)
GI50 [5]: 21.9 µM (inactive)
GI50 [6]: 30.3 µM (inactive)
GI50 [56]: 30.9 µM (inactive)
GI50 [7]: 17.5 µM (inactive)
GI50 [8]: 38 µM (inactive)
GI50 [9]: 15.6 µM (inactive)
GI50 [11]: 24.8 µM (inactive)
GI50 [12]: 21 µM
GI50 [13]: 47.1 µM (inactive)
GI50 [14]: 33.7 µM (inactive)
GI50 [15]: 15.7 µM (inactive)
GI50 [16]: 20 µM (inactive)
GI50 [17]: 26.1 µM (inactive)
GI50 [18]: 33 µM (inactive)
GI50 [19]: 43.2 µM (inactive)
GI50 [20]: 35 µM (inactive)
GI50 [21]: 17.5 µM (inactive)
GI50 [22]: 21.9 µM (inactive)
GI50 [23]: 21.2 µM (inactive)
GI50 [25]: 25.6 µM (inactive)
GI50 [26]: 30.1 µM (inactive)
GI50 [27]: 36 µM (inactive)
GI50 [28]: 36.5 µM (inactive)
GI50 [29]: 20.6 µM (inactive)
GI50 [30]: 24.2 µM (inactive)
GI50 [31]: 19.5 µM (inactive)
GI50 [32]: 20.7 µM (inactive)
GI50 [33]: 23.9 µM (inactive)
GI50 [34]: 23.7 µM (inactive)
GI50 [35]: 29.4 µM (inactive)
GI50 [36]: 23.6 µM (inactive)
GI50 [37]: 23.3 µM (inactive)
GI50 [38]: 36.4 µM (inactive)
GI50 [39]: 21.2 µM (inactive)
GI50 [41]: 15.3 µM (inactive)
GI50 [42]: 21.8 µM (inactive)
GI50 [43]: 16.5 µM (inactive)
GI50 [45]: 18.6 µM (inactive)
GI50 [46]: 17 µM (inactive)
GI50 [57]: 25.2 µM (inactive)
GI50 [47]: 30.1 µM (inactive)
GI50 [48]: 40.9 µM (inactive)
GI50 [49]: 34 µM (inactive)
GI50 [50]: 23.3 µM (inactive)
GI50 [58]: 46.1 µM (inactive)
GI50 [51]: 29.4 µM (inactive)
GI50 [52]: 18.3 µM (inactive)
GI50 [53]: 30.5 µM (inactive)
GI50 [54]: 20.1 µM (inactive)
GI50 [55]: 18.3 µM (inactive)
